Measurements: ChEMBL document CHEMBL1201862, “PubChem BioAssay data set” (2004)
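Exposure lasted 48 hours, with cells grown in 96-well plates and compounds tested at five concentrations. GI50 = concentration required for 50% inhibition of growth.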 Activity calls are given as the source filed them. Cut-off read from the data, not from the text of the source: active = GI50 up to about 1.1 µM and inactive = higher.

Assays:
Experiment in all cases: NCI tumour cell line growth inhibition, 48 h
786-0 = system: 786-0
RPMI-8226 = system: RPMI-8226
UACC-257 = system: UACC-257
NCI-H226 = system: NCI-H226
OVCAR-3 = system: OVCAR-3
KM12 = system: KM12
HOP-62 = system: HOP-62
UO-31 = system: UO-31
M14 = system: M14
SN12C = system: SN12C
CCRF-CEM = system: CCRF-CEM
UACC-62 = system: UACC-62
ACHN = system: ACHN
TK-10 = system: TK-10
IGROV-1 = system: IGROV-1
OVCAR-4 = system: OVCAR-4
NCI-H460 = system: NCI-H460

Measured: GI50

COc1ccc2c(C(=O)O)cc3ccccc3c2c1OC
inactive: 786-0 15.7 µM | RPMI-8226 31 µM | UACC-257 17.1 µM | NCI-H226 24.4 µM | OVCAR-3 16.6 µM | KM12 18.3 µM | HOP-62 69.3 µM | UO-31 17.2 µM | M14 16.4 µM | SN12C 20.9 µM | CCRF-CEM 24.8 µM | UACC-62 15.2 µM | ACHN 16.3 µM | TK-10 19.1 µM

CCCCN(CCCC)CCCn1cnc2ncccc2c1=O
inactive: 786-0 > 100 µM | NCI-H226 > 100 µM | OVCAR-3 > 100 µM | KM12 > 100 µM | HOP-62 > 100 µM | UO-31 > 100 µM | M14 > 100 µM | SN12C > 100 µM | CCRF-CEM > 100 µM | IGROV-1 > 100 µM | OVCAR-4 > 100 µM | UACC-62 > 100 µM | ACHN > 100 µM | NCI-H460 > 100 µM | TK-10 > 100 µM

O=C(NCC#CCO)C(F)(F)F
inactive: 786-0 > 100 µM | UACC-257 > 100 µM | NCI-H226 > 100 µM | KM12 > 100 µM | HOP-62 > 100 µM | UO-31 > 100 µM | M14 > 100 µM | SN12C > 100 µM | IGROV-1 > 100 µM | OVCAR-4 > 100 µM | UACC-62 > 100 µM | ACHN > 100 µM | NCI-H460 > 100 µM | TK-10 > 100 µM

CSc1ccc2c(cc1=O)C(NC(=O)c1ccc(OC(C)=O)cc1)CCc1cc(O)c(O)c(O)c1-2 (stereo unspecified)
inactive: 786-0 31 µM | UACC-257 19.5 µM | NCI-H226 20.9 µM | OVCAR-3 20.8 µM | KM12 32 µM | HOP-62 26.9 µM | UO-31 35.6 µM | M14 16.7 µM | SN12C 16.3 µM | CCRF-CEM 3.43 µM | OVCAR-4 9.02 µM | UACC-62 18.5 µM | ACHN 66.8 µM | NCI-H460 23.2 µM | TK-10 91.2 µM

Cc1nc2c(N)ncnc2o1
inactive: 786-0 > 100 µM | UACC-257 > 100 µM | NCI-H226 > 100 µM | OVCAR-3 > 100 µM | KM12 > 100 µM | HOP-62 > 100 µM | UO-31 > 100 µM | M14 > 100 µM | SN12C > 100 µM | CCRF-CEM > 100 µM | IGROV-1 > 100 µM | OVCAR-4 > 100 µM | UACC-62 > 100 µM | ACHN > 100 µM | NCI-H460 > 100 µM | TK-10 > 100 µM

N#CC(C#N)=c1c2nsnc2c(=C(C#N)C#N)c2nsnc12
inactive: 786-0 5.16 µM | UACC-257 1.94 µM | NCI-H226 16.7 µM | OVCAR-3 3.66 µM | KM12 1.85 µM | HOP-62 2.04 µM | UO-31 1.84 µM | M14 2.07 µM | OVCAR-4 1.96 µM | ACHN 1.81 µM | NCI-H460 2.08 µM | TK-10 16 µM

Cc1nc2c(n1CCC(C)C)C(=O)c1ccccc1C2=O
inactive: 786-0 24.9 µM | UACC-257 27.7 µM | NCI-H226 45.2 µM | OVCAR-3 23.5 µM | KM12 21.3 µM | HOP-62 18 µM | UO-31 24.8 µM | M14 20.1 µM | SN12C 23.2 µM | CCRF-CEM 13.6 µM | IGROV-1 22.3 µM | OVCAR-4 36.6 µM | UACC-62 12.2 µM | ACHN 29.9 µM | NCI-H460 6.08 µM | TK-10 41.2 µM

O=C(CC12C3C4C1C1C2C3C41CC(=O)NO)NO (stereo unspecified)
inactive: 786-0 40.7 µM | RPMI-8226 40.3 µM | UACC-257 21.8 µM | NCI-H226 34 µM | OVCAR-3 34.3 µM | KM12 38.8 µM | HOP-62 40.8 µM | M14 28.8 µM | SN12C 41.2 µM | CCRF-CEM 26.7 µM | UACC-62 37.6 µM | ACHN > 100 µM | NCI-H460 23.4 µM | TK-10 > 100 µM
